The results in this text go back to patent US6451999B2, “1-(3-aminoindazol-5-yl)-3-butyl-cyclic urea useful as a HIV protease inhibitor” (Bristol-Myers Squibb Pharma Company, priority 1996, dated 2002).

Converted amounts (≈) assume the structure as drawn.

One series has as its system HIV-1 (RF). Nature of the series: HIV RNA assay: microplate based compound evaluation in HIV-1 infected MT-2 cells. It is filed as cell-based. The conditions noted are these: Human immunodeficiency virus 1, MT2, 72 h; HIV-1 (RF) infected MT-2 cells, 3 days of culture; virus dilution selected to standardize the inoculum; read-out: IC90 value (concentration of compound required to reduce the HIV RNA level by 90%). The procedure: Plasmid pDAB 72 containing both gag and pol sequences of BH10 (bp 113-1816) cloned into PTZ 19R was prepared according to Erickson-Viitanen et al. AIDS Research and Human Retroviruses 1989, 5, 577. The plasmid was linearized with Bam HI prior to the generation of in vitro RNA transcripts using the Riboprobe Gemini system II kit (Promega) with T7 RNA polymerase. Synthesized RNA was purified by treatment with RNase free DNAse (Promega), phenol-chloroform extraction, and ethanol precipitation. RNA transcripts were dissolved in water, and stored at −70° C. The concentration of RNA was determined from the A260.
Biotinylated capture probes were purified by HPLC after synthesis on an Applied Biosystems (Foster City, Calif.) DNA synthesizer by addition of biotin to the 5′ terminal end of the oligonucleotide, using the biotin-phosphoramidite reagent of Cocuzza, Tet. Lett. 1989, 30, 6287. […]
MT-2 and MT-4 cells were maintained in RPMI 1640 supplemented with 5% fetal calf serum (FCS) for MT-2 cells or 10% FCS for MT-4 cells, 2 mM L-glutamine and 50 μg/mL gentamycin, all from Gibco. […] Infectious titers of HIV-1(RF) stocks were 1-3×10^7 PFU (plaque forming units) /mL as measured by plaque assay on MT-2 cells (see below). […]

The melting point is the temperature of the solid-liquid transition. With `CCCCN1C(=O)N(Cc2ccc3[nH]nc(N)c3c2)[C@H](Cc2ccccc2)[C@H](O)[C@@H](O)[C@H]1Cc1ccccc1` [Example 1, (4R,5S,6S,7R)-Hexahydro-1-[5-(3-aminoindazole)methyl]-3-butyl-5,6-dihydroxy-4,7-bis[phenylmethyl]-2H-1,3-diazapin-2-one], the melting point is 129 to 131 °C.
Regarding `Nc1ccn([C@H]2CC[C@@H](CO)O2)c(=O)n1` [ddC, dideoxycytidine], in the series with HIV-1 (RF), the IC90 was 0.2 µg/mL (≈ 0.947 µM).
